Measured values as given in the NIST ThermoML archive (doi:10.1021/je200350a).

Assay: xn = mol fraction of the nth substance listed
Settings: 101 kPa, Liquid; for viscosity: Capillary tube (Ostwald / Ubbelohde) method

CCCCBr [1-bromobutane] + CC1CCCCC1
Settings	mass density, 293.15 K [kg/m3]	mass density, 298.15 K [kg/m3]	mass density, 303.15 K [kg/m3]	mass density, 308.15 K [kg/m3]	viscosity, 293.15 K [mPa·s]	viscosity, 298.15 K [mPa·s]	viscosity, 303.15 K [mPa·s]	viscosity, 308.15 K [mPa·s]
x2 = 0.1014	1218.7	1212.2	1206.3	1198.2	0.6398	0.6033	0.5754	0.5463
x2 = 0.1535	1187.3	1180.4	1174.2	1167.5	0.6402	0.6034	0.5745	0.5458
x2 = 0.2607	1129.8	1123	1118.5	1111	0.6441	0.6066	0.5762	0.5462
x2 = 0.372	1071	1064.8	1059.4	1053.2	0.6465	0.6104	0.578	0.5479
x2 = 0.4293	1041	1035.5	1029.9	1024.4	0.6517	0.6152	0.5826	0.5516
x2 = 0.5473	978.8	973.2	967.8	962.5	0.6581	0.62	0.5854	0.554
x2 = 0.608	946.5	941.2	935.8	930.7	0.6622	0.6235	0.5882	0.5561
x2 = 0.7979	858.3	853.5	849	843.8	0.6877	0.6457	0.6074	0.5721
x2 = 0.8639	830	825.8	821.8	816.5	0.6993	0.6558	0.6166	0.5806

O=[N+]([O-])c1ccccc1 [nitrobenzene] + CC1CCCCC1
Settings	mass density, 293.15 K [kg/m3]	mass density, 298.15 K [kg/m3]	mass density, 303.15 K [kg/m3]	mass density, 308.15 K [kg/m3]	viscosity, 293.15 K [mPa·s]	viscosity, 298.15 K [mPa·s]	viscosity, 303.15 K [mPa·s]	viscosity, 308.15 K [mPa·s]
x1 = 0.1422	820.2	816.2	812.4	808.2	0.785	0.735	0.6901	0.649
x1 = 0.2103	845.2	840.8	837.4	832.3	0.8282	0.7723	0.7233	0.6777
x1 = 0.3412	900.9	897.5	894.2	891	0.9436	0.8765	0.8177	0.7653
x1 = 0.404	919.6	915.6	912.8	909	0.9971	0.9244	0.8618	0.8054
x1 = 0.5249	973.2	970.2	965	962.6	1.125	1.042	0.9677	0.9044
x1 = 0.6397	1027	1022.7	1019.6	1016	1.266	1.172	1.089	1.015
x1 = 0.7489	1075.7	1071.6	1067.8	1062.9	1.416	1.312	1.218	1.136
x1 = 0.853	1123.6	1119.2	1114.5	1111.5	1.613	1.484	1.371	1.272
x1 = 0.9031	1150.8	1146.3	1142	1137.5	1.718	1.58	1.46	1.354
